The source of these data is patent publication US11376264B2, “Use of bromodomain-containing protein 9 antagonists in combination with vitamin D receptor agonists in diabetes treatment” (Salk Institute for Biological Studies, priority 2017, dated 2022).

The subject of one experiment is VDR-PCAF interaction. Description: Immunoprecipitation of endogenous PCAF with HA-VDR in INS1 cells. It counts as cell-based, rat. As to conditions: INS1 cells expressing HA-VDR, 1 hr after treatment. On the procedure:
Immunoprecipitations were performed as described previously (He et al., 2010, Mol. Cell 38, 428-38). Briefly, cells are lysed using ice-cold lysis buffer (HEPES 20 mM pH8, EDTA 0.2 mM, NaCl 0.3 mM, NP40 0.5%, 15% glycerol) for 15 min, and after centrifuging the supernatant was collected. For HA- or Flag-tagged proteins, immunoprecipitations were performed using HA-magnetic beads (Pierce, P188836), or Flag-magnetic beads (Sigma, M8823) for 1.5 hr at 4° C. For other immunoprecipitations, primary antibodies were incubated with lysates for 2 hr followed by Protein A magnetic beads (Life Technologies, 10001D). After 3 washes with wash buffer (HEPES 10 mM pH8, EDTA 0.2 mM, NaCl 0.3 mM, NP40 0.1%, 15% glycerol), the beads were boiled with NuPage LDS sample buffer and the lysates were stored at −20° C.

In another experiment the test system is INS1 cells. Description: H3K27Ac ChIP-seq enhancer landscape in IL1β-treated INS1 cells. As to conditions: 1 hour IL1β. It counts as cell-based, rat. The text has this:
The experimental procedure for ChIP was as previously described (Barish et al., 2010, Genes Dev 24:2760-5). Briefly, after fixation, nuclei from were isolated, lysed, and sheared with a Diagenode Bioruptor to yield DNA fragment sizes of 200-1,000 bp followed by immunoprecipitation.
The procedure was as previously described (Barish et al., 2010, Genes Dev 24:2760-5). Briefly, short DNA reads were aligned against the mouse mm9 or rat rn4 reference genome using the Illumina CASAVA v1.8.2. Reads were aligned using the Bowtie aligner, allowing up to two mismatches in the read. Only tags that map uniquely to the genome were considered for further analysis. Subsequent peak calling and motif analysis were conducted using HOMER, a software suite for ChIP-seq analysis. The methods for HOMER, described below, have been implemented and are available at http://homer.ucsd.edu. One tag from each unique position was considered to eliminate peaks resulting from clonal amplification of fragments during the ChIP-seq protocol. Peaks were identified by searching for clusters of tags within a sliding 200 bp window, requiring adjacent clusters to be at least 1 kb away from each other. The threshold for the number of tags that determine a valid peak was selected for an FDR <0.001, as empirically determined by repeating the peak finding procedure using randomized tag positions. […]

Experiment [1] has as its system low-dose STZ-treated mice. Description: Low-dose STZ β cell damage mouse model. Particulars: for glucose control (overnight fasted glucose): i.p. 3 times a week; for serum insulin levels: mouse, in vivo. It counts as in vivo. On the procedure:
8 week old C57B16 male mice were injected intraperitoneally with streptozotocin (Sigma, S0130) at the dose of 50 mg/kg every day for 5 consecutive days.
For immunohistochemistry, FFPE tissues sections were deparaffinized and antigen retrieval performed using Vector Antigen Unmasking buffer (H3301). VectaStain ABC kit and ImmPACT DAB substrate (Vector Lab) were used to develop signal. Antibodies used: Pro-insulin (R&D, MAB13361, 1:100), insulin (Abcam, ab7842, 1:100), MAFA (Novus, NB400-137, 1:50), NKX6-1 (Cell Signaling, 54551, 1:100), and Glucagon (Abcam, ab82270, 1:100). DAPI-containing mounting media ([…] mounting medium for fluorescence) was used for nuclear staining. Immunostaining was visualized by ZEISS 780 confocal microscopy analysis.
(§1) Intraperitoneal GTTs were performed on overnight fasted mice. Blood glucose values were assessed before and at 0, 15, 30, 60, and 120 min after i.p. administration of 0.5 g/kg of glucose. Serum insulin levels were assessed before and at 0, 15, and 60 min after the i.p. administration of glucose using a rat/mouse Insulin ELISA kit (Millipore). IP-ITT assays were performed on mice after a 6 hr fast with an injection of 2 U/kg of insulin (Humalin R, Eli Lilly).

In a further experiment the test system is db/db (B6) mice. Description: db/db (B6) mouse T2D model treatment. It counts as in vivo. As to conditions: for fasted blood glucose levels: Cal 60 μg/kg, iBRD9 10 mg/kg i.p. 3 times a week, 9 weeks; for serum insulin levels: FIG. 10D, fasting / random fed. On the procedure:
The following mice strains were from Jackson: VDR KO (B6.129S4-Vdrtm1Mbd/J), B6 db (B6.BKS(D)-Leprdb/J), BKS db (BKS.Cg-Dock7m+/+ Leprdb/J), C57BL6/J. Animals were maintained in a specific pathogen-free animal facility on a 12-hr light-dark cycle at an ambient temperature of 23° C. Water and food were provided ad lib. All animal experiments used age-matched male mice. VDR KO and control littermate mice were maintained on a VDR KO rescue diet containing 21% calcium, 0.67% phosphorus, and 20% lactose supplemented with 4.4 U vitamin D per gram diet.
db/db (B6) mice were grouped based on glucose levels at the age of 5 weeks. Treatments were started from 6 weeks and animals were treated with vehicle (30% 2-Hydroxypropyl-β Cyclodextrin, Sigma, H-107) or drugs 3 times a week. […] For db/db (BKS) mice, treatment started from age of 10 weeks.
as §1
ELISA were performed per manufacturer's instructions: mouse insulin (Millipore, EZRMI-13K), mouse proinsulin (Mercodia, NC9088881).

Structures are written as SMILES. Entries after “also recorded” stand apart in the source; their conditions may differ.

Turning to `C=C1/C(=C\C=C2/CCC[C@]3(C)[C@@H]([C@H](C)/C=C/[C@@H](O)C4CC4)CC[C@@H]23)C[C@@H](O)C[C@@H]1O` [Cal, calcipotriol], in the experiment with VDR-PCAF interaction, the “PCAF binding to VDR” value was “increased”. The “reversal of IL1β-induced changes in H3K27 acetylation” value in the experiment with INS1 cells was “partially reverse the impact of IL1β”. Also, in experiment [1], the “glucose control (overnight fasted glucose)” value is “limited to no benefit” and the serum insulin levels entry is on record as “increased levels of insulin”. Further, in the experiment with db/db (B6) mice, the “fasted blood glucose levels” value is given as “modest improvements; also recorded: mildly reduces” and the serum insulin levels result was “higher fasting serum insulin levels”. Also, in the experiment on db/db (B6) mice (RNA-seq of islets), the “cytokine and chemokine genes in islets” value was “downregulated”; the “key transcription factors (Nkx6-1, Nr4a1) in islets” value was “upregulation”. In addition, the “Cyp24A1 expression in islets and intestine” value in the experiment on db/db (B6) mice (VDR target gene) is “marked induction”. The “glucose tolerance (IPGTT)” value in the experiment on db/db (B6) mice (after 9 weeks treatment) is “improved glucose clearance; also recorded: better glucose tolerance”. In addition, in the experiment on db/db (B6) mice (qPCR), the “Ins2 mRNA levels in islets” value is listed as “trended upwards; also recorded: increased expression of Ins2” and the “expression of gluconeogenesis genes (Pepck, Fbp1, G6pase) in liver” value is given as “reduced expression; also recorded: repressed”.
Consider `CCn1cc(-c2cccc(C(F)(F)F)c2)c2sc(C(=N)NC3CCS(=O)(=O)CC3)cc2c1=O` [iBRD9], for which the “PCAF binding to VDR” value with VDR-PCAF interaction is given as “increased”. Further, the “reversal of IL1β-induced changes in H3K27 acetylation” value in the experiment with INS1 cells is recorded as “partially reverse the impact of IL1β”. Further, in experiment [1], the “glucose control (overnight fasted glucose)” value is “limited to no benefit” and the serum insulin levels result is listed as “increased levels of insulin”. In the experiment on db/db (B6) mice, the “fasted blood glucose levels” value was “modest improvements” and the serum insulin levels result is reported as “higher fasting serum insulin levels”.
